Results reported in patent publication US9084828B2, “Oligomer-protein tyrosine kinase inhibitor conjugates” (Nektar Therapeutics, priority 2009, dated 2015).
pIC50: −log10 of the molar value.

Tests used:
CKIT = CKIT (Homo sapiens, UniProt P10721); assay: Activity against various protein tyrosine kinases: CKIT; assay type: biochemical
CaMKII (beta) = CaMKII (beta) (Homo sapiens, UniProt Q13554); assay: Activity against various protein tyrosine kinases: CaMKII (beta); assay type: biochemical
RSK1 = RSK1 (Homo sapiens, UniProt Q15418); assay: Activity against various protein tyrosine kinases: RSK1; assay type: biochemical
Chain of RSK1 (Q15418 whole entry, species assumed): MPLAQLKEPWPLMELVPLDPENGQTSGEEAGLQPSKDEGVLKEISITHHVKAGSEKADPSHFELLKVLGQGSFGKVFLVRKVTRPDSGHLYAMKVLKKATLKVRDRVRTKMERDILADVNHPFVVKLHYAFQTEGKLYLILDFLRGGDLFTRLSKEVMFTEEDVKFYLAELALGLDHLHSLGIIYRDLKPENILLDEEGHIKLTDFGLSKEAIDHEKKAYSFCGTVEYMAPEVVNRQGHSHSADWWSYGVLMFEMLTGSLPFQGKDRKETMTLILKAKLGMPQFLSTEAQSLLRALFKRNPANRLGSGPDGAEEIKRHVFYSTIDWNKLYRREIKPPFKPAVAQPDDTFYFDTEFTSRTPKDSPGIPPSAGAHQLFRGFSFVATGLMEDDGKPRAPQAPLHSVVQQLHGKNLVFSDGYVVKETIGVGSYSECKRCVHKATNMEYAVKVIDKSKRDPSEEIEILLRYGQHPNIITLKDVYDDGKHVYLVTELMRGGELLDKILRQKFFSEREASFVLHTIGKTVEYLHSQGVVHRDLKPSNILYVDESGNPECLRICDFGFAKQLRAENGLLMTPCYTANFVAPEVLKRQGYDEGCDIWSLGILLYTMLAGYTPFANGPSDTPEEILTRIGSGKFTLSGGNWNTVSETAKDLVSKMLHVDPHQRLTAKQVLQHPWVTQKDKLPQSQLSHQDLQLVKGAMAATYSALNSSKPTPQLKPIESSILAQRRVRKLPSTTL

MSK1 = MSK1 (Homo sapiens, UniProt O75582); assay: Activity against various protein tyrosine kinases: MSK1; assay type: biochemical
Chain of MSK1 (O75582 whole entry, species assumed): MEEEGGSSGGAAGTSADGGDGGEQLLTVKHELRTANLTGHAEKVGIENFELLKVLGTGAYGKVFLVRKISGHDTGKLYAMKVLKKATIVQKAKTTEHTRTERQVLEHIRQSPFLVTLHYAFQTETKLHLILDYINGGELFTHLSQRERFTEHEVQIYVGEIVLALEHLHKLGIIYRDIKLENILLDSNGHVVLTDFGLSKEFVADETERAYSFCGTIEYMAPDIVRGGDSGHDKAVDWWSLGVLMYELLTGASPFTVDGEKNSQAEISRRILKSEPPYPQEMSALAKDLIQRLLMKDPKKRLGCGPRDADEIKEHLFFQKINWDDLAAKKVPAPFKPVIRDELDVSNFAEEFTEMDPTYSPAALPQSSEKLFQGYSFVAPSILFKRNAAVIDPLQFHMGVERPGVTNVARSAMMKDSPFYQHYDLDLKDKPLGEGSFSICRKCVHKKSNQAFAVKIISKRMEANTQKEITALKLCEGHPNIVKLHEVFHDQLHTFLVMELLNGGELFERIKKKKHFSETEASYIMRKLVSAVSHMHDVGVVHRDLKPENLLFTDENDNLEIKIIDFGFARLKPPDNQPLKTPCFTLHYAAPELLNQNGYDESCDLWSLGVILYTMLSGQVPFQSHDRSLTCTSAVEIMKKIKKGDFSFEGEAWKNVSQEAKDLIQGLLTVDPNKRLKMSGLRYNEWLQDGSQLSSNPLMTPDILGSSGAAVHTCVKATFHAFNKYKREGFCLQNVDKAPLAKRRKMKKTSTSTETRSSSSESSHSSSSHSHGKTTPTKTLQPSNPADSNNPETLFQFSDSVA

IKK-beta = biological target: T1, IKK-beta (Homo sapiens, UniProt O14920); assay: Activity against various protein tyrosine kinases: IKK-beta; assay type: biochemical
T1 sequence (O14920 1-756): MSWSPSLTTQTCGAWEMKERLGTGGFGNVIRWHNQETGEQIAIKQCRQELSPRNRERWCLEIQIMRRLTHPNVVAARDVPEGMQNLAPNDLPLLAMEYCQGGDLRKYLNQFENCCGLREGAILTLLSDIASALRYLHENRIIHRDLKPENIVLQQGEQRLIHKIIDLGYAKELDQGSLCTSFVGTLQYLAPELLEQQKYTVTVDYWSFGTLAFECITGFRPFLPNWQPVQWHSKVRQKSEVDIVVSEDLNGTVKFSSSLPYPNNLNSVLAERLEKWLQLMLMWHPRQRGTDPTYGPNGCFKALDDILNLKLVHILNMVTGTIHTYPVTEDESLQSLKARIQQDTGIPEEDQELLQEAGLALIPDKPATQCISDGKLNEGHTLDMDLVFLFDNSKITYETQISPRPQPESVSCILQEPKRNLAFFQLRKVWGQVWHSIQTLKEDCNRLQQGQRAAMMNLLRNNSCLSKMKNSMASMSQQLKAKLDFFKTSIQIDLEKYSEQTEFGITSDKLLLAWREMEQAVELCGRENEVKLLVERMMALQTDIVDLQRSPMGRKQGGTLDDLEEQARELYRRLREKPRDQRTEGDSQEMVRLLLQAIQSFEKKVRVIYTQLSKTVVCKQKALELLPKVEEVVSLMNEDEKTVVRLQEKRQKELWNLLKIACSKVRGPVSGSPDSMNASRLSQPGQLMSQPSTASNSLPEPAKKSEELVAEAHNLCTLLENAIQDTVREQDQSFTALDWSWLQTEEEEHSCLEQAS

GSK3b = GSK3b (Homo sapiens, UniProt P49841); assay: Activity against various protein tyrosine kinases: GSK3b; assay type: biochemical
Chain of GSK3b (P49841 whole entry, species assumed): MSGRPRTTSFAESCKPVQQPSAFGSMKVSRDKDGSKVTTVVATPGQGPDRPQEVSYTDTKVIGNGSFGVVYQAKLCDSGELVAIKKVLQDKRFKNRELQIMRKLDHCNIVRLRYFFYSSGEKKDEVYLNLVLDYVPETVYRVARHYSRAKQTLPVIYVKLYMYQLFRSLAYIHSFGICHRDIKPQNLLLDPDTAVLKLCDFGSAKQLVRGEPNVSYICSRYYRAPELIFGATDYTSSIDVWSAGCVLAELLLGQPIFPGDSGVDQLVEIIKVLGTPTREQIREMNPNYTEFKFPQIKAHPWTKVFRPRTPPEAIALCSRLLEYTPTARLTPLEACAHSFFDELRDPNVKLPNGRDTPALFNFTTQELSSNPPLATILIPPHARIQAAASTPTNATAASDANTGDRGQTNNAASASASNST

MAPKAPK2 = MAPKAPK2 (Homo sapiens, UniProt P49137); assay: Activity against various protein tyrosine kinases: MAPKAPK2; assay type: biochemical
Chain of MAPKAPK2 (P49137 whole entry, species assumed): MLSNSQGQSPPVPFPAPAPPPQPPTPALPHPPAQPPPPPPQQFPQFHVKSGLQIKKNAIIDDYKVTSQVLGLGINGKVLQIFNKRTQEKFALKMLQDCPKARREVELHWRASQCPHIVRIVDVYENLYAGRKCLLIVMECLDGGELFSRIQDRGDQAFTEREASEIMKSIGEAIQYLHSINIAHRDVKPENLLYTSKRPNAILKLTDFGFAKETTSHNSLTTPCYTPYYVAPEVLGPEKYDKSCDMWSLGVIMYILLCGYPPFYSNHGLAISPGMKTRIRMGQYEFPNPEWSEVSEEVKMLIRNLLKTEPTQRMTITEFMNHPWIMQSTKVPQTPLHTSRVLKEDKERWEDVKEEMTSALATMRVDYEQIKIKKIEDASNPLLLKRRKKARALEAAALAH

ABL = ABL (Homo sapiens, UniProt P00519); assay: ABL tyrosine kinase inhibition, off-chip incubation mobility-shift kinase assay (Caliper LABCHIP 3000); conditions: for pIC50: ABL, ATP at Km 14 μM, unit inferred; for ABL AVG % Activity at Specific Concentration: average of replicate wells
Chain of ABL (P00519 whole entry): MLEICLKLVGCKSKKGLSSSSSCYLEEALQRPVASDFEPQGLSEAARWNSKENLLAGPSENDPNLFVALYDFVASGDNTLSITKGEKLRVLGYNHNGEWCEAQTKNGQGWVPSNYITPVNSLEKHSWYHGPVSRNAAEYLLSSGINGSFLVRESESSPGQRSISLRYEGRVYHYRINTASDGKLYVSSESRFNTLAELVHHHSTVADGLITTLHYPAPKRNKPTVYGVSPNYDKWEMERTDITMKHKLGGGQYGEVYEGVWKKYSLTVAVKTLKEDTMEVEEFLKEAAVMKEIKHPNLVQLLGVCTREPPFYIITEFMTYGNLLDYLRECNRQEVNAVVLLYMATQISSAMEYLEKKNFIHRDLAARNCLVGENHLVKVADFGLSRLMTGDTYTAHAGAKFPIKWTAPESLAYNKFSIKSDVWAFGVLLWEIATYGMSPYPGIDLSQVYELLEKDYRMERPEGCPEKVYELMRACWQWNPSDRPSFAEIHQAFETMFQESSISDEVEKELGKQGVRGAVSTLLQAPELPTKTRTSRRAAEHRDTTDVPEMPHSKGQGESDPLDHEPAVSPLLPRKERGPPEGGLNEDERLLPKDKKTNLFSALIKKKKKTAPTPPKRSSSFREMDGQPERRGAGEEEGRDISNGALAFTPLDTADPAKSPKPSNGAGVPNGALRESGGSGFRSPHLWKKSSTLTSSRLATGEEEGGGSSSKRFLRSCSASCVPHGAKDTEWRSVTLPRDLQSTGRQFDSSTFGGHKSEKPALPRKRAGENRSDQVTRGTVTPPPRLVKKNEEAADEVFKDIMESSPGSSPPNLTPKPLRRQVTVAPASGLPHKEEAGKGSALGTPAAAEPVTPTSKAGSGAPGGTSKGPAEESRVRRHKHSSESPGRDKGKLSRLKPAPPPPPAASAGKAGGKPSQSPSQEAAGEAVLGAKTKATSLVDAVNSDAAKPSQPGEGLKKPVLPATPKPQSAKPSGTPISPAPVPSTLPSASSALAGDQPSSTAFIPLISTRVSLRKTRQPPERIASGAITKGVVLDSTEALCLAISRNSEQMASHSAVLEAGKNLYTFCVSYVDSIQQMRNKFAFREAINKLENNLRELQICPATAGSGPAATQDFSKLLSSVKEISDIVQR

FGFR3 = FGFR3 (Homo sapiens, UniProt P22607); assay: Activity against various protein tyrosine kinases: FGFR3; assay type: biochemical
PKD2 = biological target: T2, PKD2 (Homo sapiens, UniProt Q9BZL6); assay: Activity against various protein tyrosine kinases: PKD2; assay type: biochemical
T2 sequence (Q9BZL6 1-878): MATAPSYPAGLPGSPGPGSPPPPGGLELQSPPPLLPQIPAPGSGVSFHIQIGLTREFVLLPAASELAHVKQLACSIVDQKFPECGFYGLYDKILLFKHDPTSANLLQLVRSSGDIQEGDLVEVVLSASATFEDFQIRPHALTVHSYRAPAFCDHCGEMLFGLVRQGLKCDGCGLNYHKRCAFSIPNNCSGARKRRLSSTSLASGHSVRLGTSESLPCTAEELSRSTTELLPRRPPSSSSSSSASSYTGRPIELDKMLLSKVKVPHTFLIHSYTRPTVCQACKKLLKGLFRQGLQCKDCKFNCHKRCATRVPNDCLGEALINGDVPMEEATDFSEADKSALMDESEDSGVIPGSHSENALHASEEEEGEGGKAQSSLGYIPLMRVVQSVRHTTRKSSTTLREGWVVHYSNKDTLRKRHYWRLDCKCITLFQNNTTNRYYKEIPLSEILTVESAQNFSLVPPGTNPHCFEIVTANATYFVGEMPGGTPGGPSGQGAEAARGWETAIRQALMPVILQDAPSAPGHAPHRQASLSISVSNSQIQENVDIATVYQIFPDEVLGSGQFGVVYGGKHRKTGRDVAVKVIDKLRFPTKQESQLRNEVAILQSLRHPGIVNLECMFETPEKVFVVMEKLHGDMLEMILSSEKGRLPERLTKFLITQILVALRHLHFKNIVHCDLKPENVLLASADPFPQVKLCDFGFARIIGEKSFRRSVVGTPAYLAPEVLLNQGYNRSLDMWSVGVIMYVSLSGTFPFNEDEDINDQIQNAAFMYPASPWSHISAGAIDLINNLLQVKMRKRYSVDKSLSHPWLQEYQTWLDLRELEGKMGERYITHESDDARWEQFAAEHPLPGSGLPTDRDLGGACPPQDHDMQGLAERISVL

PRAK = biological target: T3, PRAK (Homo sapiens, UniProt Q8IW41); assay: Activity against various protein tyrosine kinases: PRAK; assay type: biochemical
T3 sequence (Q8IW41 1-473): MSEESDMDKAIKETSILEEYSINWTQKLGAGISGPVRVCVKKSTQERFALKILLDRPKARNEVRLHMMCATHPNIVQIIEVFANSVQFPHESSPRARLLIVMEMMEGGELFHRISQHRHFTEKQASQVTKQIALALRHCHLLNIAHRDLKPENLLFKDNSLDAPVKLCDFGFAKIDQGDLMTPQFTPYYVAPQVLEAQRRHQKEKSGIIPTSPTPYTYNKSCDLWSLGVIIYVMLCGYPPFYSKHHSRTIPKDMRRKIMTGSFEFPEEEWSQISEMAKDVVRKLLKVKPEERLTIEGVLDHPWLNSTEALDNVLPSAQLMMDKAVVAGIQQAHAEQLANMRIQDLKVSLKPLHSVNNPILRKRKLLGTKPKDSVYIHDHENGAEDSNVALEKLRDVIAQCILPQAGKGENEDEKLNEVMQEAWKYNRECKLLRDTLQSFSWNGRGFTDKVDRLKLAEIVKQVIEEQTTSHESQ

[1] = at 1.0E−09 (concentration unit not given)
[2] = at 1.0E−10 (concentration unit not given)
[3] = at 1.0E−11 (concentration unit not given)
[4] = at 3.0E−09 (concentration unit not given)
[5] = at 3.0E−10 (concentration unit not given)
[6] = at 3.0E−11 (concentration unit not given)

Chain of CKIT (P10721 26-976): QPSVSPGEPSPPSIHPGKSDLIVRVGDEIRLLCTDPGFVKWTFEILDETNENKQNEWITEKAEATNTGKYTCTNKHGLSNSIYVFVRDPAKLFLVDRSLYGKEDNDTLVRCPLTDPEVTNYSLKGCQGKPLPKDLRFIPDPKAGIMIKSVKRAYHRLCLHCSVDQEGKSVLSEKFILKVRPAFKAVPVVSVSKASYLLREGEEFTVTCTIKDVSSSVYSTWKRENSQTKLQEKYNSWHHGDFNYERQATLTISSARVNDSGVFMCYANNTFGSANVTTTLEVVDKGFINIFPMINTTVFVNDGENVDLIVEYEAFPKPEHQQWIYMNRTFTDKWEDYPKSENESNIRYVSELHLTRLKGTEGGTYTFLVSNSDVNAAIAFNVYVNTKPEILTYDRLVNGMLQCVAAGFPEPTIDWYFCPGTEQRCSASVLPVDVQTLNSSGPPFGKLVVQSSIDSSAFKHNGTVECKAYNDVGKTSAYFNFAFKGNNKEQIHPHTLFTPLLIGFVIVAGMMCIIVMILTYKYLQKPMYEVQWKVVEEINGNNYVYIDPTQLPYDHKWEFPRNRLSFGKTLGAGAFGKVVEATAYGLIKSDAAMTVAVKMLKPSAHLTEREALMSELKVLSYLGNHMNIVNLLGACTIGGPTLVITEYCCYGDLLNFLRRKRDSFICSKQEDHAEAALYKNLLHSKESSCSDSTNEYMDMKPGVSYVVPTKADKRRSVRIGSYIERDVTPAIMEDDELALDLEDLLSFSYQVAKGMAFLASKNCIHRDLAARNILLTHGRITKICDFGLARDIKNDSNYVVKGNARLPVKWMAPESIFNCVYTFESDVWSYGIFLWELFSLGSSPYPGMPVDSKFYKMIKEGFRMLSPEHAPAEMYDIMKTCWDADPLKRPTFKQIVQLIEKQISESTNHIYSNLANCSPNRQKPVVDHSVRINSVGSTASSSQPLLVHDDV

Compound | % Inhibition at 10 nM (CKIT) [%] | % Inhibition at 1 μM (CKIT) [%] | % Inhibition at 10 nM (CaMKII (beta)) [%] | % Inhibition at 1 μM (CaMKII (beta)) [%] | % Inhibition at 10 nM (RSK1) [%] | % Inhibition at 1 μM (RSK1) [%] | % Inhibition at 10 nM (MSK1) [%] | % Inhibition at 1 μM (MSK1) [%] | % Inhibition at 10 nM (IKK-beta) [%] | % Inhibition at 1 μM (IKK-beta) [%] | % Inhibition at 10 nM (GSK3b) [%] | % Inhibition at 1 μM (GSK3b) [%] | % Inhibition at 10 nM (MAPKAPK2) [%] | % Inhibition at 1 μM (MAPKAPK2) [%] | pIC50 (ABL) | ABL AVG % Activity at Specific Concentration (ABL; [1]) [%] | ABL AVG % Activity at Specific Concentration (ABL; [2]) [%] | ABL AVG % Activity at Specific Concentration (ABL; [3]) [%] | ABL AVG % Activity at Specific Concentration (ABL; [4]) [%] | ABL AVG % Activity at Specific Concentration (ABL; [5]) [%] | also measured
COCCOCCOCCNC(=O)OCCN1CCN(c2cc(Nc3ncc(C(=O)Nc4c(C)cccc4Cl)s3)nc(C)n2)CC1 [mPEG3-NHCOO-Dasatinib] | 34 | 100 | 1 | 2 | 2 | 0 | 2 | 1 | 0 | 1 | 4 | 1 | 1 | −1 | 9.52 | 4 | 81 | 99 | 0 | 47 | ABL AVG % Activity at Specific Concentration (ABL; [6]): 95%; % Inhibition at 10 nM (FGFR3): 3%; % Inhibition at 1 μM (FGFR3): 11%; % Inhibition at 10 nM (PKD2): 12%; % Inhibition at 1 μM (PKD2): −5%; % Inhibition at 10 nM (PRAK): 6%; % Inhibition at 1 μM (PRAK): 4%
COCCOCCOCCOCCOCCOCCOCCNC(=O)OCCN1CCN(c2cc(Nc3ncc(C(=O)Nc4c(C)cccc4Cl)s3)nc(C)n2)CC1 [mPEG7-NHCOO-Dasatinib] | 34 | 100 | 1 | 2 | 0 | 4 | 3 | 5 | 2 | 2 | 3 | 2 | 3 | 7 | 9.49 | 4 | 80 | 98 | −1 | 48 | ABL AVG % Activity at Specific Concentration (ABL; [6]): 91%; % Inhibition at 10 nM (FGFR3): 2%; % Inhibition at 1 μM (FGFR3): 10%; % Inhibition at 10 nM (PKD2): 3%; % Inhibition at 1 μM (PKD2): 4%; % Inhibition at 10 nM (PRAK): 8%; % Inhibition at 1 μM (PRAK): 0%
